Laboratory results as given in patent US20240002395A1, “COMPOUNDS AND THEIR USE FOR TREATING NEUROPATHIC PAIN” (The Johns Hopkins University, priority 2020, published 2024).

Legend:
human MrgprX1 = target: T1, human MrgprX1 (Homo sapiens, UniProt Q96LB2); assay: MrgprX1 positive allosteric modulator (PAM) calcium FLIPR assay in HEK293 cells; type: cell-based; conditions: PAM activity in presence of EC20 concentration of BAM8-22; HEK293 cells stably transfected with human MrgprX1
T1 construct: expressed in transfected cells
T1 sequence (Q96LB2 whole entry): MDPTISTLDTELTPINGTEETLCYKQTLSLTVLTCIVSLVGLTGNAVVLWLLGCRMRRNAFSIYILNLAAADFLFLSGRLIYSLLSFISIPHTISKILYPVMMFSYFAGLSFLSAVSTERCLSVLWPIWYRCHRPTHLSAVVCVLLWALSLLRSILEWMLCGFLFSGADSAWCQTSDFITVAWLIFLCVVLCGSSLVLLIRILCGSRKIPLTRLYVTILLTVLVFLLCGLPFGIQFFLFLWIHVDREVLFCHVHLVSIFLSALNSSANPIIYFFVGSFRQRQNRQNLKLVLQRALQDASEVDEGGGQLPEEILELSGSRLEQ
Description: HEK293 cells stably transfected with human MrgprX1 were plated onto poly-D-lysine-coated, black-walled, 96-well plates at a seeding density of 12,000 cells/well and grown for two days. On the day of the experiment, cells were incubated with Fluo-4 AM 2 μM, pluronic acid 0.04% and Trypan Red 1% in HBSS (pH 7.4, 100 μL) for 1 h at 37° C. For each different passage of cells, a BAM8-22 dose response was first conducted and the BAM8-22 EC20 determined. Test compounds were then dissolved and serially diluted in DMSO, further diluted with Trypan Red (1%)-containing HBSS (50 μL) and added to cells (0.33% DMSO concentration by volume) to first monitor for agonist activity. After 2.5 min, BAM8-22 at 4-fold EC20 (50 μL) was added to cells (0.25% DMSO concentration by volume) and the cells imaged on the FLIPR for an additional 2 minutes to monitor the test compounds for PAM activity. Finally, data were normalized to fluorescence signals obtained from 250 nM of BAM8-22 (maximum) and BAM8-22 at its EC20 concentration (minimum). EC50 of a test compound was defined as the concentration required to provoke a response halfway between the minimum and maximum response in the presence of EC20 concentration of BAM8-22.

[1] = Metabolic stability in mouse liver microsomes; type: in vitro ADME; conditions: mouse liver microsomes 0.5 mg/mL, NADPH, compound 5 μM, 60 min
Description: (§1) The metabolic stability was evaluated using mouse liver microsomes. For the cytochrome P450 (CYP)-mediated metabolism, the reaction was carried out with 100 mM potassium phosphate buffer, pH 7.4, in the presence of NADPH regenerating system (1.3 mM NADPH, 3.3 mM glucose 6-phosphate, 3.3 mM MgCl2, 0.4 U/mL glucose-6-phosphate dehydrogenase, 50 μM sodium citrate). Reactions, in triplicate, were initiated by addition of the liver microsomes to the incubation mixture (compound final concentration was 5 μM; 0.5 mg/mL microsomes). After 60 min of incubation, aliquots of the mixture were removed and the reaction quenched by addition of three times the volume of ice-cold acetonitrile spiked with the internal standard. Compound disappearance was monitored over time using a liquid chromatography and tandem mass spectrometry (LC/MS/MS) method.

[2] = Metabolic stability in human liver microsomes; type: in vitro ADME
Description: [The procedure below names another species; the source lists this species under the same test.] as §1

[3] = In vivo oral pharmacokinetics in mice; conditions: 100 mg/kg oral; for Tmax: male, CD-1, mouse
Description: Male CD-1 mice between 25 and 30 g were obtained from Harlan, and maintained on a 12-h light-dark cycle with ad libitum access to food and water. Three animals were used per time-point for each treatment group. Compound 7a was dissolved in 5% dimethyl acetamide, 10% Tween80, 10% Cremophor EL, 25% PEG400, and 50% water, and administered to male mice as a single oral dose by oral gavage of 100 mg/kg. The mice were sacrificed at various time points post-drug administration. Animals were euthanized with CO2, and blood samples were collected in heparinized microtubes by cardiac puncture. Brain and spinal cord tissues were dissected and immediately flash frozen (−80° C.). Blood samples were spun at 2,000×g for 15 min, plasma was removed and stored at −80° C. until LC-MS analysis. Prior to extraction, frozen samples were thawed on ice. The calibration curves were developed using plasma and brain from naïve animals as a matrix. Plasma samples (50 μL), were processed using a single liquid extraction method by addition of 300 μL of acetonitrile as with internal standard (losartan: 0.5 μM), followed by vortex mixing for 30 sec and then centrifugation at 10,000×g for 10 min at 4° C. Fifty microliter of the supernatant is diluted with 50 μL of water and transferred to 250 μL polypropylene autosampler vials sealed with a Teflon cap. For brain and spinal cord tissue analysis, samples were weighed in the range of (80-100 mg) to which 2-volumes of acetonitrile as with internal standard (losartan: 0.5 μM) was added and homogenized for extraction of the analyte. Samples were vortex mixed for 1 min and centrifuged as above. A 20 μL aliquot of supernatant was diluted with 20 μL of water and transferred to 250 μL polypropylene autosampler vials sealed with a Teflon cap. A volume of 3 μL was injected onto the ultra-performance liquid chromatography (UPLC) instrument for quantitative analysis by LC-MS/MS. Samples were analyzed on a Thermo Scientific Accela UPLC system coupled to Accela open autosampler at ambient temperature with an Agilent Eclipse Plus column (100×2.1 mm i.d.) packed with a 1.8 μm C18 stationary phase. The autosampler was temperature controlled and operated at 10° C. The mobile phase used for the chromatographic separation was composed of acetonitrile/water containing 0.1% formic acid and with a flow rate of 0.4 mL/min for 4.5 min using gradient elution. The column effluent was monitored using TSQ Vantage triple-quadrupole mass-spectrometric detector, equipped with an electrospray probe set in the positive ionization mode. Samples were introduced into the ionization source through a heated nebulized probe (350° C.).

[4] = tested on: MrgprX1 mice after sciatic CCI; assay: Chronic constrictive injury (CCI) model, heat hypersensitivity (Hargreaves test); type: in vivo; conditions: 100 mg/kg oral gavage
Description: Compound 7a was examined for its ability to attenuate heat hypersensitivity in MrgprX1 mice after receiving sciatic CCI, according to the previously described methods (Proc Natl Acad Sci USA. 2017 Mar. 7; 114(10):E1996-E2005). Paw withdrawal latency (PWL) to noxious heat stimuli was measured with the Hargreaves test. The results are summarized in FIG. 2 (** P<0.01, *** P<0.001 vs. vehicle; ##P<0.01, ###P<0.001, ####P<0.0001 vs. pre-drug. Two-way mixed-model ANOVA with Bonferroni post hoc test. Data are expressed as mean+SD).

[5] = intrathecal injection; cited from earlier work

EC50 (human MrgprX1) | % remaining after 1-h incubation, Mouse [1] | % remaining after 1-h incubation, Human [2] | AUC0-last ([3]; Brain) | Cmax ([3]; Brain) | Cmax ([3]; Plasma) | Cmax ([3]; Spinal cord) | Tmax ([3]; Brain) | Tmax ([3]; Plasma) | Tmax ([3]; Spinal cord) | melting point | Structure (SMILES) | ipsilateral paw withdrawal latency (PWL) to noxious heat ([4]; 1-2 hours after dosing, day 12 and day 26 post-CCI, vs pre-drug level) | contralateral paw withdrawal latency (PWL) to noxious heat ([4]; compared to pre-drug baseline or vehicle-treated group) | efficacy in preclinical models of pain [5]
300 nM | <5% | 78% | – | – | – | – | – | – | – | 81 to 82 °C | CC(C)(C)c1sc2ncnc(Oc3ccccc3F)c2c1-c1ccccc1 [Compound 7bd, 6-(tert-butyl)-4-(2-fluorophenoxy)-5-phenylthieno[2,3-d]pyrimidine] | – | – | –
20 nM | 36% | 93% | – | – | – | – | – | – | – | 205 °C | CC(C)(C)c1sc2ncnc(Oc3c(F)cccc3F)c2c1-c1ccc(Cl)c(Cl)c1 [Compound 7n, 6-tert-butyl-5-(3,4-dichlorophenyl)-4-(2,6-difluorophenoxy)thieno[2,3-d]pyrimidine] | – | – | –

The remaining lines, values behind:

Structure (SMILES) | EC50 (human MrgprX1) | % remaining after 1-h incubation, Mouse [1] | % remaining after 1-h incubation, Human [2] | AUC0-last ([3]; Brain) | Cmax ([3]; Brain) | Cmax ([3]; Plasma) | Cmax ([3]; Spinal cord) | Tmax ([3]; Brain) | Tmax ([3]; Plasma) | Tmax ([3]; Spinal cord) | melting point | ipsilateral paw withdrawal latency (PWL) to noxious heat ([4]; 1-2 hours after dosing, day 12 and day 26 post-CCI, vs pre-drug level) | contralateral paw withdrawal latency (PWL) to noxious heat ([4]; compared to pre-drug baseline or vehicle-treated group) | efficacy in preclinical models of pain [5]
CC(C)(C)c1sc2ncnc(Oc3ccccc3OC(F)(F)F)c2c1-c1ccc(Cl)c(Cl)c1 [Compound 7a, 6-tert-butyl-5-(3,4-dichlorophenyl)-4-(2-(trifluoromethoxy)phenoxy)thieno[2,3-d]pyrimidine] | 100 nM | 25% | >95% | 2.37 ± 0.03 µM·h | 0.82 ± 0.05 µM | 39 ± 5.06 µM | 4.6 ± 0.6 µM | 1.67 ± 0.33 h | 1.67 ± 0.33 h | 1.17 ± 0.44 h | – | significantly increased from pre-drug level | no significant changes | –
Cc1sc2ncnc(Oc3ccccc3F)c2c1-c1ccccc1 [Compound 7bb, 4-(2-fluorophenoxy)-6-methyl-5-phenylthieno[2,3-d]pyrimidine] | 400 nM | <5% | 12% | – | – | – | – | – | – | – | 158 °C | – | – | –
CCOc1ccccc1NC(=O)c1ccccc1NS(=O)(=O)C1CC1 [ML382, 2-(cyclopropanesulfonamido)-N-(2-ethoxyphenyl)benzamide] | – | – | – | – | – | – | – | – | – | – | – | – | – | showed efficacy
